Measurements reported in patent US8309577B2, “Quinuclidine compounds as α-7 nicotinic acetylcholine receptor ligands” (Bristol-Myers Squibb Company, priority 2008, dated 2012).
Like-named read-outs stand apart in the source and are kept apart here.

Tests used:
[1] = target: T1, α-7 nicotinic acetylcholine receptor channel expressed in HEK 293 cells (Rattus norvegicus, UniProt Q05941); assay: Ca2+-sensitive fluorescence-based FLIPR assay, α7 nicotinic ACh receptor channel function (agonist); assay type: cell-based
T1 construct: expressed in transfected cells
How it was run: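 Potency and efficacy derived from kinetic FLIPR Ca²⁺-flux fluorescence, recorded 3 min after compound addition in Hanks buffer following a 10 s baseline.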

mucosal mast cells = conditions: Kageyama-Yahara et al. 2008; cited from earlier work
[2] = FLIPR α7 activity rating (EC50, nM), Table 1, HEK 293 cells, agonist Ca2+ flux
[3] = FLIPR α7 activity rating (EC50, nM), Table Ib, HEK 293 cells, agonist Ca2+ flux
[4] = FLIPR α7 (EC50, nM), Table Ib, HEK 293 cells, agonist Ca2+ flux

T1 sequence (Q05941 23-502): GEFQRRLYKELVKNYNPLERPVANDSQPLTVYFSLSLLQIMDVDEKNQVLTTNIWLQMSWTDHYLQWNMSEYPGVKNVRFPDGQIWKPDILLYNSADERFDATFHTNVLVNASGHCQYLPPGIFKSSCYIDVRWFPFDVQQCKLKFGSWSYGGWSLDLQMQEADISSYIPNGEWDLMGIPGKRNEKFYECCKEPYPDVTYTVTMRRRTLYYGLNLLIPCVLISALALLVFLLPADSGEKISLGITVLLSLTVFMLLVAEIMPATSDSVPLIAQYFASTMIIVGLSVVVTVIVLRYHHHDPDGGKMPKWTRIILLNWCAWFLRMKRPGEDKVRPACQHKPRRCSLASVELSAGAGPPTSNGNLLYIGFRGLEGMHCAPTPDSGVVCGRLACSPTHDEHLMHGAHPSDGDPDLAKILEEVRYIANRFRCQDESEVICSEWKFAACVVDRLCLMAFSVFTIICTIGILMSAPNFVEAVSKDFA

Row | SMILES | EC50 [1, 3] | also measured
1 | c1ccc(-c2cnc(NC3=NCC4(CN5CCC4CC5)O3)s2)cc1 (stereo not shown) [Example 4, N-(5-Phenylthiazol-2-yl)-4H-1′-azaspiro[oxazole-5,3′-bicyclo[2.2.2]octan]-2-amine] |  | EC50 [1, 2]: < 100 nM; melting point: 187 to 189 °C
2 | c1ccc2[nH]c(NC3=NCC4(CN5CCC4CC5)O3)nc2c1 (stereo not shown) [Example 8, N-(1H-benzo[d]imidazol-2-yl)-4H-1′-azaspiro[oxazole-5,3′-bicyclo[2.2.2]octan]-2-amine] |  | EC50 [1, 2]: 100 to 1000 nM; melting point: 255 °C (dec.)
3 | FC(F)Oc1ccc2nc(NC3=NC[C@@]4(CN5CCC4CC5)O3)sc2c1 [Example 22, (R)—N-(6-(Difluoromethoxy)benzo[d]thiazol-2-yl)-4H-1′-azaspiro[oxazole-5,3′-bicyclo[2.2.2]octan]-2-amine] |  | EC50 [1, 2]: 100 to 1000 nM; melting point: 223 to 225 °C
4 | FC(F)Oc1cc(NC2=NC[C@@]3(CN4CCC3CC4)O2)ncn1 [Example 144] |  | EC50 [1, 2]: < 100 nM; melting point: 185 to 190 °C
5 | c1ccc2nc(NC3=NC[C@@]4(CN5CCC4CC5)O3)cnc2c1 [Example 220] |  | EC50 [1, 2]: < 100 nM; melting point: 212 to 215 °C
6 | FC(F)COc1cc(NC2=NC[C@@]3(CN4CCC3CC4)O2)ncn1 [Example 233, (R)—N-(6-(2,2-Difluoroethoxy)pyrimidin-4-yl)-4H-1′-azaspiro[oxazole-5,3′-bicyclo[2.2.2]octan]-2-amine] |  | EC50 [1, 2]: < 100 nM; melting point: 83 to 88 °C
7 | COc1cccc(-c2cc(NC3=NC[C@@]4(CN5CCC4CC5)O3)ncn2)c1 [Example 238, (R)—N-(6-(3-Methoxyphenyl)pyrimidin-4-yl)-4H-1′-azaspiro[oxazole-5,3′-bicyclo[2.2.2]octan]-2-amine] |  | EC50 ([1]; FLIPR α7 (EC50, nM), Table 1, HEK 293 cells, agonist Ca2+ flux): 16 nM; EC50 [1, 2]: < 100 nM; melting point: 80 to 85 °C
8 | CSc1cnc(NC2=NC[C@@]3(CN4CCC3CC4)O2)cn1 [Example 250, (R)—N-(5-(Methylthio)pyrazin-2-yl)-4H-1′-azaspiro[oxazole-5,3′-bicyclo[2.2.2]octan]-2-amine] |  | EC50 [1, 2]: < 100 nM; melting point: 155 to 160 °C
9 | Cc1nc(NC2=NC[C@@]3(CN4CCC3CC4)O2)cc2ccc(F)cc12 [Example 327, (R)—N-(7-Fluoro-1-methylisoquinolin-3-yl)-4H-1′-azaspiro[oxazole-5,3′-bicyclo[2.2.2]octan]-2-amine] | 100 to 1000 nM | 
10 | Cc1nc(NC2=NC[C@@]3(CN4CCC3CC4)O2)cc2c(F)cc(F)cc12 [Example 328, (R)—N-(5,7-Difluoro-1-methylisoquinolin-3-yl)-4H-1′-azaspiro[oxazole-5,3′-bicyclo[2.2.2]octan]-2-amine] | 100 to 1000 nM | 
11 | CSc1ccc(-c2cc(NC3=NC[C@@]4(CN5CCC4CC5)O3)ncn2)cn1 [Example 329, (R)—N-(6-(6-(Methylthio)pyridin-3-yl)pyrimidin-4-yl)-4H-1′-azaspiro[oxazole-5,3′-bicyclo[2.2.2]octan]-2-amine] | < 100 nM | 
12 | Fc1ncccc1-c1cc(NC2=NC[C@@]3(CN4CCC3CC4)O2)ncn1 [Example 330, (R)—N-(6-(2-Fluoropyridin-3-yl)pyrimidin-4-yl)-4H-1′-azaspiro[oxazole-5,3′-bicyclo[2.2.2]octan]-2-amine] | < 100 nM | 
13 | Fc1ccc(-c2cc(NC3=NC[C@@]4(CN5CCC4CC5)O3)ncn2)cn1 [Example 331, (R)—N-(6-(6-Fluoropyridin-3-yl)pyrimidin-4-yl)-4H-1′-azaspiro[oxazole-5,3′-bicyclo[2.2.2]octan]-2-amine] | < 100 nM | 
14 | Fc1cncc(-c2cc(NC3=NC[C@@]4(CN5CCC4CC5)O3)ncn2)c1 [Example 332, (R)—N-(6-(5-Fluoropyridin-3-yl)pyrimidin-4-yl)-4H-1′-azaspiro[oxazole-5,3′-bicyclo[2.2.2]octan]-2-amine] | < 100 nM | 
15 | Cn1nccc1-c1cc(NC2=NC[C@@]3(CN4CCC3CC4)O2)ncn1 [Example 333, (R)—N-(6-(1-Methyl-1H-pyrazol-5-yl)pyrimidin-4-yl)-4H-1′-azaspiro[oxazole-5,3′-bicyclo[2.2.2]octan]-2-amine] | < 100 nM | 
16 | c1cnc(-c2cc(NC3=NC[C@@]4(CN5CCC4CC5)O3)ncn2)cn1 [Example 334, (R)—N-(6-(Pyrazin-2-yl)pyrimidin-4-yl)-4H-1′-azaspiro[oxazole-5,3′-bicyclo[2.2.2]octan]-2-amine] | < 100 nM | 
17 | Cc1cc2cnc(NC3=NC[C@@]4(CN5CCC4CC5)O3)cc2cc1C [Example 335, (2R)—N-(6,7-Dimethyl-3-isoquinolinyl)-4′H-spiro[4-azabicyclo[2.2.2]octane-2,5′-[1,3]oxazol]-2′-amine] | 100 to 1000 nM | EC50 [1, 4]: 104 nM

Row | SMILES | EC50 [1, 3] | also measured
18 | Cc1ccc2nc(NC3=NC[C@@]4(CN5CCC4CC5)O3)oc2c1 [Example 336, (2R)—N-(6-Methyl-1,3-benzoxazol-2-yl)-4′H-spiro[4-azabicyclo[2.2.2]octane-2,5′-[1,3]oxazol]-2′-amine] | < 100 nM | 
19 | COc1ccc2nc(NC3=NC[C@@]4(CN5CCC4CC5)O3)oc2c1 [Example 337, (2R)—N-(6-Methoxy-1,3-benzoxazol-2-yl)-4′H-spiro[4-azabicyclo[2.2.2]octane-2,5′-[1,3]oxazol]-2′-amine] | 100 to 1000 nM | 
20 | Clc1cccc2cnc(NC3=NC[C@@]4(CN5CCC4CC5)O3)cc12 [Example 338A, (R)—N-(5-chloroisoquinolin-3-yl)-4H-1′-azaspiro[oxazole-5,3′-bicyclo[2.2.2]octan]-2-amine] | < 100 nM | 
21 | Clc1ccc2cc(NC3=NC[C@@]4(CN5CCC4CC5)O3)ncc2c1 [Example 338B, (R)—N-(7-chloroisoquinolin-3-yl)-4H-1′-azaspiro[oxazole-5,3′-bicyclo[2.2.2]octan]-2-amine] | < 100 nM | 
22 | Clc1cnc2nc(NC3=NC[C@@]4(CN5CCC4CC5)O3)sc2c1 [Example 339, (R)—N-(6-Chlorothiazolo[4,5-b]pyridin-2-yl)-4H-1′-azaspiro[oxazole-5,3′-bicyclo[2.2.2]octan]-2-amine] | < 100 nM | 
23 | Fc1ccc2nc(NC3=NC[C@@]4(CN5CCC4CC5)O3)sc2n1 [Example 340, (R)—N-(5-Fluorothiazolo[5,4-b]pyridin-2-yl)-4H-1′-azaspiro[oxazole-5,3′-bicyclo[2.2.2]octan]-2-amine] | < 100 nM | 
24 | Cc1cnc2nc(NC3=NC[C@@]4(CN5CCC4CC5)O3)sc2n1 [Example 341, (R)—N-(6-methylthiazolo[5,4-b]pyrazin-2-yl)-4H-1′-azaspiro[oxazole-5,3′-bicyclo[2.2.2]octan]-2-amine] | < 100 nM | 
25 | COc1cc2cnc(NC3=NC[C@@]4(CN5CCC4CC5)O3)cc2cc1OC [Example 342, (R)—N-(6,7-dimethoxyisoquinolin-3-yl)-4H-1′-azaspiro[oxazole-5,3′-bicyclo[2.2.2]octan]-2-amine] | 1000 to 100000 nM | EC50 [1]: 1600 nM
26 | c1nc(NC2=NC[C@@]3(CN4CCC3CC4)O2)cc2c1CCCC2 [Example 343, (R)—N-(5,6,7,8-Tetrahydroisoquinolin-3-yl)-4H-1′-azaspiro[oxazole-5,3′-bicyclo[2.2.2]octan]-2-amine] | < 100 nM | 
27 | COc1cc2cnc(NC3=NC[C@@]4(CN5CCC4CC5)O3)cc2cc1Cl [Example 344, (R)—N-(6-Chloro-7-methoxyisoquinolin-3-yl)-4H-1′-azaspiro[oxazole-5,3′-bicyclo[2.2.2]octan]-2-amine] | < 100 nM | 
28 | Fc1cccc2cnc(NC3=NC[C@@]4(CN5CCC4CC5)O3)cc12 [Example 345, (R)—N-(5-Fluoroisoquinolin-3-yl)-4H-1′-azaspiro[oxazole-5,3′-bicyclo[2.2.2]octan]-2-amine] | < 100 nM | 
29 | Fc1ccc(Br)c2cnc(NC3=NC[C@@]4(CN5CCC4CC5)O3)cc12 [Example 346, (R)—N-(8-Bromo-5-fluoroisoquinolin-3-yl)-4H-1′-azaspiro[oxazole-5,3′-bicyclo[2.2.2]octan]-2-amine] | 100 to 1000 nM | EC50 [1, 4]: 310 nM
30 | c1cn(-c2cc(NC3=NC[C@@]4(CN5CCC4CC5)O3)ncn2)cn1 [Example 347, (R)—N-(6-(1H-imidazol-1-yl)pyrimidin-4-yl)-4H-1′-azaspiro[oxazole-5,3′-bicyclo[2.2.2]octan]-2-amine] | < 100 nM | 
31 | Cc1cn(-c2cc(NC3=NC[C@@]4(CN5CCC4CC5)O3)ncn2)cn1 [Example 348, (R)—N-(6-(4-Methyl-1H-imidazol-1-yl)pyrimidin-4-yl)-4H-1′-azaspiro[oxazole-5,3′-bicyclo[2.2.2]octan]-2-amine] | < 100 nM | 
32 | Clc1cn(-c2cc(NC3=NC[C@@]4(CN5CCC4CC5)O3)ncn2)cn1 [Example 349, (R)—N-(6-(4-Chloro-1H-imidazol-1-yl)pyrimidin-4-yl)-4H-1′-azaspiro[oxazole-5,3′-bicyclo[2.2.2]octan]-2-amine] | < 100 nM | 
33 | c1nc(NC2=NC[C@@]3(CN4CCC3CC4)O2)cc(-n2cncn2)n1 [Example 351, (R)—N-(6-(1H-1,2,4-triazol-1-yl)pyrimidin-4-yl)-4H-1′-azaspiro[oxazole-5,3′-bicyclo[2.2.2]octan]-2-amine] | < 100 nM | 
34 | COc1ccc(/C=C2\CCCN=C2c2cccnc2)c(OC)c1 [GTS-21] |  | antigen-induced degranulation of mucosal mast cells (mucosal mast cells): inhibits
